Assay results as given in PMC9403976, “Elucidating the path to Plasmodium prolyl-tRNA synthetase inhibitors that overcome halofuginone resistance” (Nature Communications, 2022).
Several values for one entry are separate records, joined by “and”; a condition that tells them apart may be missing. Identical values can stand only once. Like-named read-outs stand apart in the source and are kept apart here. Marks after values point to notes of the source that are not given here.

Columns and labels:
[1] = test system: halofuginone-induced P. falciparum (elevated proline homeostasis); experiment: P. falciparum ABS growth assay, SYBR Green, 72 h, halofuginone-induced parasites; type: cell-based, Plasmodium falciparum; conditions: for parasite growth, dose-response point: Halofuginone-Induced (HFG-Induced)
Procedure, shortened: (§1)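 Dd2-derived erythrocytic-stage parasites at 1% parasitemia and 1% hematocrit in RPMI + 0.5% Albumax were exposed to compounds in triplicate dose-response. Controls were 10 μM dihydroartemisinin (kill) and no-compound wells (growth). Growth was read by SYBR Green 1 fluorescence after 72 h and used to derive EC50.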

P. falciparum Dd2-2D4 = experiment: P. falciparum asexual blood stage (ABS) growth assay, SYBR Green, 72 h, wild-type parasites; type: cell-based, Plasmodium falciparum
[2] = test system: HFGR-I P. falciparum (elevated proline homeostasis and PfcProRS^L482H); experiment: P. falciparum ABS growth assay, SYBR Green, 72 h, HFGR-I parasites; type: cell-based, Plasmodium falciparum; conditions: for parasite growth, dose-response point: HFGR-I
Procedure, shortened: as §1

HsProRS = HsProRS (Homo sapiens, UniProt P07814); experiment: TR-FRET ligand displacement assay with tracer MAT379 (CoraFluor-1-Halo and anti-His6 antibody formats); type: binding; design: made in house; host or cells: E. coli SoluBL-21; conditions: for normalized TR-FRET signal (dose-response replicates): SI Fig 17a
PfcProRS = biological target: T1, PfcProRS (Plasmodium falciparum, UniProt Q8I5R7); type: binding; conditions: for Normalized response, dose-response replicates (SI Fig 14): replicates 1-3
T1 construct: made in house; host or cells: E. coli SoluBL-21

[3] = 10 μM, compound had <50% inhibition
[4] = Log[inhibitor] (M) -5.000, series r4-r15

T1 sequence (Q8I5R7 249-746): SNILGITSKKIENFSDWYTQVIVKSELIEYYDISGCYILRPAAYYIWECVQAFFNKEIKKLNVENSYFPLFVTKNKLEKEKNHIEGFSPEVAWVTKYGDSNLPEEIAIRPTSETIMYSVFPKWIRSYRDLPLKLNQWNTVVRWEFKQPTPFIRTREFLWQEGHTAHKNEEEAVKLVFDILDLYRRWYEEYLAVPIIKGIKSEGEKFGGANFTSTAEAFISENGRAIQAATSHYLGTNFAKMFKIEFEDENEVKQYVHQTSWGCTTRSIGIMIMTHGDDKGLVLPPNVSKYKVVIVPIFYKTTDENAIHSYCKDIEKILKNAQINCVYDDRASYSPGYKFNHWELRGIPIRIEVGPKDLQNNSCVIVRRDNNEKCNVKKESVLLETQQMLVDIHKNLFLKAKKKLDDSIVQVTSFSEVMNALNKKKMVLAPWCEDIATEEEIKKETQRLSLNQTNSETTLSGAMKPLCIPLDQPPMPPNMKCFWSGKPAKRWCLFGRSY
HsProRS, sequence (P07814 996-1512): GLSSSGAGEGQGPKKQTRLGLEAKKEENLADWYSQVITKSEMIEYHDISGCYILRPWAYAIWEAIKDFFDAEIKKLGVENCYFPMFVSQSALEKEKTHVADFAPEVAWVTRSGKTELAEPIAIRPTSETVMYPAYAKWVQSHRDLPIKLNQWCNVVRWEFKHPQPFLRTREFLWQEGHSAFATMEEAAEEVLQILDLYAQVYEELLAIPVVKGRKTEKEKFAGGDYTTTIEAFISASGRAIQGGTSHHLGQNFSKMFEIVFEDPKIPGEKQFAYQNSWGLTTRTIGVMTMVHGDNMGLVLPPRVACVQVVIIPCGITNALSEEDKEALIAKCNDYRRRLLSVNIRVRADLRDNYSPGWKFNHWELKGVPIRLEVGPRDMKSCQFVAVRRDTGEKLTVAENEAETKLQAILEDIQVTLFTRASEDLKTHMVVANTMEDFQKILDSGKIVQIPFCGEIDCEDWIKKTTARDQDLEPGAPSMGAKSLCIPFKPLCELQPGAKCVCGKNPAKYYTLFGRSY

CC(C)(C)OC(=O)N1CCC[C@H]1C(=O)NC1CCN(C(=O)Nc2nccnc2C(=O)NC2Cc3ccccc3C2)CC1 [compound 31]
percent growth at 10 μM, Dd2 Halofuginone-induced [1, 3]: 98%^b
parasite growth, dose-response point [1, 4]: 103 and 98 and 92
parasite growth, dose-response point ([1]; Log[inhibitor] (M) -5.301): 107 and 109 and 115
parasite growth, dose-response point ([1]; Log[inhibitor] (M) -5.602): 124 and 110 and 116
parasite growth, dose-response point ([1]; Log[inhibitor] (M) -5.903): 117 and 106 and 104
parasite growth, dose-response point ([1]; Log[inhibitor] (M) -6.204): 111 and 107 and 99
parasite growth, dose-response point ([1]; Log[inhibitor] (M) -6.505): 98 (2×) and 104
parasite growth, dose-response point ([1]; Log[inhibitor] (M) -6.806): 109 and 112 and 103
parasite growth, dose-response point ([1]; Log[inhibitor] (M) -7.107): 105 and 103 and 108
parasite growth, dose-response point ([1]; Log[inhibitor] (M) -7.408): 116 and 109 and 103
parasite growth, dose-response point ([1]; Log[inhibitor] (M) -7.709): 115 and 100 and 119
parasite growth, dose-response point ([1]; Log[inhibitor] (M) -8.010): 104 and 100 and 101
parasite growth, dose-response point ([1]; Log[inhibitor] (M) -8.311): 107 and 102 and 101
EC50 ([1]; Plasmodium falciparum, DD2, halofuginone-induced, bound given in μM, read-out: Dd2 EC50 halofuginone-induced, bound): > 10 µM
% signal at 10 μM, halofuginone-induced ([1]; halofuginone-induced, 10 μM): 97.7%
percent growth at 10 μM, Dd2 wt (P. falciparum Dd2-2D4; [3]): 102%^b
EC50 (P. falciparum Dd2-2D4; Plasmodium falciparum, wildtype (Dd2-2D4), bound given in μM, read-out: Dd2 EC50 wildtype (Dd2-2D4), bound): > 10 µM
% signal at 10 μM, wildtype (Dd2-2D4) (P. falciparum Dd2-2D4; wildtype (Dd2-2D4), 10 μM): 102%
percent growth at 10 μM, Dd2 HFGR-I [2, 3]: 103%^b
% signal at 10 μM, HFGR1 ([2]; HFGR1, 10 μM): 103%
parasite growth, dose-response point [2, 4]: 106 and 104 and 99
parasite growth, dose-response point ([2]; Log[inhibitor] (M) -5.301): 101 and 100
parasite growth, dose-response point ([2]; Log[inhibitor] (M) -5.602): 105 and 102 and 104
parasite growth, dose-response point ([2]; Log[inhibitor] (M) -5.903): 95 and 102 and 101
parasite growth, dose-response point ([2]; Log[inhibitor] (M) -6.204): 104 and 99 and 98
parasite growth, dose-response point ([2]; Log[inhibitor] (M) -6.505): 99 and 95 and 97
parasite growth, dose-response point ([2]; Log[inhibitor] (M) -6.806): 108 and 106 and 107
parasite growth, dose-response point ([2]; Log[inhibitor] (M) -7.107): 106 and 105
parasite growth, dose-response point ([2]; Log[inhibitor] (M) -7.408): 109 and 104 and 106
parasite growth, dose-response point ([2]; Log[inhibitor] (M) -7.709): 108 and 106
parasite growth, dose-response point ([2]; Log[inhibitor] (M) -8.010): 103 and 105
parasite growth, dose-response point ([2]; Log[inhibitor] (M) -8.311): 108 and 105 and 104
EC50 ([2]; Plasmodium falciparum, DD2, HFGR1, bound given in μM, read-out: Dd2 EC50 HFGR1, bound): > 10 µM
HsProRS % signal at 10 μM, + 100 μM proline (HsProRS; + 100 μM proline, 10 μM): 59.4%
Kd (HsProRS; HsProRS (KD [nM]) −, absence of substrates, 250 nM MAT379): 5130 nM
Kd (HsProRS; HsProRS KD + 100 μM proline, bound, + 100 μM proline, bound given in μM): > 5090 nM
normalised signal, dose-response point (Fig 4d) (HsProRS; Log[inhibitor] (M) -5.000, series of 31): 4.79E-01 and 4.46E-01
normalised signal, dose-response point (Fig 4d) (HsProRS; Log[inhibitor] (M) -5.286): 6.67E-01 and 6.31E-01
normalised signal, dose-response point (Fig 4d) (HsProRS; Log[inhibitor] (M) -5.574): 7.84E-01 and 7.77E-01
normalised signal, dose-response point (Fig 4d) (HsProRS; Log[inhibitor] (M) -5.862): 8.87E-01 and 8.96E-01
normalised signal, dose-response point (Fig 4d) (HsProRS; Log[inhibitor] (M) -6.151): 9.64E-01 and 9.65E-01
normalised signal, dose-response point (Fig 4d) (HsProRS; Log[inhibitor] (M) -6.428): 9.34E-01 and 9.44E-01
normalised signal, dose-response point (Fig 4d) (HsProRS; Log[inhibitor] (M) -6.729): 9.61E-01 and 9.47E-01
normalised signal, dose-response point (Fig 4d) (HsProRS; Log[inhibitor] (M) -7.006): 9.42E-01 and 8.63E-01
normalised signal, dose-response point (Fig 4d) (HsProRS; Log[inhibitor] (M) -7.295): 9.55E-01 and 9.92E-01
normalised signal, dose-response point (Fig 4d) (HsProRS; Log[inhibitor] (M) -7.585): 1.05E+00 and 9.07E-01
normalised signal, dose-response point (Fig 4d) (HsProRS; Log[inhibitor] (M) -7.875): 9.50E-01 and 9.36E-01
normalised signal, dose-response point (Fig 4d) (HsProRS; Log[inhibitor] (M) -8.135): 9.31E-01 and 9.40E-01
normalised signal, dose-response point (Fig 4d) (HsProRS; Log[inhibitor] (M) -8.477): 9.84E-01 and 9.46E-01
normalised signal, dose-response point (Fig 4d) (HsProRS; Log[inhibitor] (M) -8.699): 8.68E-01 and 9.88E-01
normalised signal, dose-response point (Fig 4d) (HsProRS; Log[inhibitor] (M) -9.176): 1.01E+00 and 1.00E+00
normalised signal, dose-response point (Fig 4d) (HsProRS; Log[inhibitor] (M) -9.363): 9.70E-01 and 9.49E-01
normalized TR-FRET signal (dose-response replicates) (HsProRS; Log[inhibitor] (M) -5.000): 3.75E-01 and 3.29E-01 and 2.94E-01
normalized TR-FRET signal (dose-response replicates) (HsProRS; Log[inhibitor] (M) -5.301): 5.13E-01 and 4.93E-01 and 4.68E-01
normalized TR-FRET signal (dose-response replicates) (HsProRS; Log[inhibitor] (M) -5.601): 7.38E-01 and 6.61E-01 and 6.36E-01
normalized TR-FRET signal (dose-response replicates) (HsProRS; Log[inhibitor] (M) -5.904): 7.87E-01 and 7.39E-01 and 7.57E-01
normalized TR-FRET signal (dose-response replicates) (HsProRS; Log[inhibitor] (M) -6.208): 8.48E-01 and 8.27E-01 and 8.24E-01
normalized TR-FRET signal (dose-response replicates) (HsProRS; Log[inhibitor] (M) -6.509): 8.55E-01 and 8.71E-01 and 8.75E-01
normalized TR-FRET signal (dose-response replicates) (HsProRS; Log[inhibitor] (M) -6.796): 8.61E-01 and 8.99E-01 and 9.13E-01
normalized TR-FRET signal (dose-response replicates) (HsProRS; Log[inhibitor] (M) -7.108): 8.48E-01 and 8.44E-01 and 8.72E-01
normalized TR-FRET signal (dose-response replicates) (HsProRS; Log[inhibitor] (M) -7.409): 9.07E-01 and 8.89E-01 and 8.65E-01
normalized TR-FRET signal (dose-response replicates) (HsProRS; Log[inhibitor] (M) -7.710): 8.96E-01 and 8.93E-01 and 8.29E-01
normalized TR-FRET signal (dose-response replicates) (HsProRS; Log[inhibitor] (M) -8.000): 9.41E-01 and 8.72E-01 and 9.37E-01
normalized TR-FRET signal (dose-response replicates) (HsProRS; Log[inhibitor] (M) -8.301): 8.90E-01 (2×) and 9.30E-01
normalized TR-FRET signal (dose-response replicates) (HsProRS; Log[inhibitor] (M) -8.602): 9.13E-01 and 9.30E-01 and 9.15E-01
normalized TR-FRET signal (dose-response replicates) (HsProRS; Log[inhibitor] (M) -9.000): 9.52E-01 and 8.88E-01 and 9.53E-01
normalized TR-FRET signal (dose-response replicates) (HsProRS; Log[inhibitor] (M) -9.301): 9.64E-01 and 9.01E-01 and 8.76E-01
Normalized response, dose-response replicates (SI Fig 14) (PfcProRS; Log[inhibitor] (M) -5.000): 5.64E-01 and 5.99E-01 and 6.18E-01
Normalized response, dose-response replicates (SI Fig 14) (PfcProRS; Log[inhibitor] (M) -5.301): 6.96E-01 and 6.54E-01 and 6.55E-01
Normalized response, dose-response replicates (SI Fig 14) (PfcProRS; Log[inhibitor] (M) -5.601): 8.77E-01 and 8.39E-01 and 9.75E-01
Normalized response, dose-response replicates (SI Fig 14) (PfcProRS; Log[inhibitor] (M) -5.904): 9.20E-01 and 8.45E-01 and 8.88E-01
Normalized response, dose-response replicates (SI Fig 14) (PfcProRS; Log[inhibitor] (M) -6.208): 9.89E-01 and 9.27E-01 and 1.07E+00
Normalized response, dose-response replicates (SI Fig 14) (PfcProRS; Log[inhibitor] (M) -6.509): 1.00E+00 and 9.45E-01 and 8.96E-01
Normalized response, dose-response replicates (SI Fig 14) (PfcProRS; Log[inhibitor] (M) -6.796): 8.17E-01 and 9.17E-01 and 9.69E-01
Normalized response, dose-response replicates (SI Fig 14) (PfcProRS; Log[inhibitor] (M) -7.108): 9.90E-01 and 9.44E-01 and 8.89E-01
Normalized response, dose-response replicates (SI Fig 14) (PfcProRS; Log[inhibitor] (M) -7.409): 9.05E-01 and 8.67E-01 and 8.30E-01
Normalized response, dose-response replicates (SI Fig 14) (PfcProRS; Log[inhibitor] (M) -7.710): 9.25E-01 and 1.08E+00 and 9.24E-01
Normalized response, dose-response replicates (SI Fig 14) (PfcProRS; Log[inhibitor] (M) -8.000): 8.19E-01 and 1.06E+00 and 9.65E-01
Normalized response, dose-response replicates (SI Fig 14) (PfcProRS; Log[inhibitor] (M) -8.301): 1.15E+00 and 1.07E+00 (2×)
Normalized response, dose-response replicates (SI Fig 14) (PfcProRS; Log[inhibitor] (M) -8.602): 1.06E+00 and 1.03E+00 and 1.05E+00
Normalized response, dose-response replicates (SI Fig 14) (PfcProRS; Log[inhibitor] (M) -9.000): 8.95E-01 and 9.81E-01 and 1.04E+00
Normalized response, dose-response replicates (SI Fig 14) (PfcProRS; Log[inhibitor] (M) -9.301): 1.02E+00 and 9.15E-01 and 1.14E+00
PfcProRS -- best Kd (PfcProRS; SI Fig 16a, values on -log scale): 5.701
